The test system of experiment [1] is wtTel26 (DNA, G4) TTAGGGTTAGGGTTAGGGTTAGGGTT
Briefly: fluorescence titration. The conditions noted are these: 100 mM K+, 25 °C, pH 7; for Kd: 0.2 μM ligand titrated with DNA; for ΔGbindo(expt): 0.2 μM ligand, ΔG obtained from experimentally determined Kd.

Experiment [2] has the same test system. Briefly: 1D 1H NMR titration. The conditions noted are these: 25 mM potassium phosphate, 70 mM KCl, pH 7, 25 °C, 100–250 µM DNA.
The mark [3] stands for this setting: medium exchange, peak broadening, less specific.

By Kd is commonly meant the constant that tells how readily two partners part at equilibrium.

With `c1c2c(cc3c1OCO3)-c1cc3ccc4c(c3c[n+]1CC2)OCO4`, in experiment [1], the Kd was 0.333 ± 0.0057 µM and the “ΔGbindo(expt)” value was -8.89 ± 0.1 kcal/mol. Also, the binding result in experiment [2] (setting [3]) is reported as “yes”.
With `COc1cc2c(cc1OC)-c1cc3ccc4c(c3c[n+]1CC2)OCO4`, in experiment [1], the Kd was determined as 0.016 ± 0.0016 µM and the “ΔGbindo(expt)” value is -10.70 ± 0.02 kcal/mol. Besides, in experiment [2] (slow exchange, well-defined complex), the binding result is recorded as “yes”.
`COc1ccc2cc3[n+](cc2c1OC)CCc1cc2c(cc1-3)OCO2`: in experiment [1], the Kd amounted to 1.994 ± 0.0461 µM and the “ΔGbindo(expt)” value was -7.82 ± 0.06 kcal/mol. Further, the binding entry in experiment [2] (setting [3]) is recorded as “yes”.
Consider `COc1cc2c(cc1OC)-c1cc3ccc(OC)c(OC)c3c[n+]1CC2`, for which, in experiment [1], the Kd came to 0.740 ± 0.0206 µM and the “ΔGbindo(expt)” value was -8.41 ± 0.01 kcal/mol. In addition, the binding entry in experiment [2] (setting [3]) is reported as “yes”.
